{"source": "patent US20240018470A1", "about": "“METHOD OF MANIPULATING PLURIPOTENCY IN CELLS” (YALE UNIVERSITY, priority 2022, published 2024)", "key": {"Xenopus embryos [1]": {"test_system": "Xenopus embryos", "experiment": "Gastrulation scoring (incomplete blastopore closure) in treated or kcnh6-depleted embryos", "type": "in vivo, Xenopus tropicalis", "details": "for inability to complete gastrulation: kcnh6 depletion, injected at one-cell stage", "procedure": "All injections of Xenopus embryos were performed at the one-cell stage using a fine glass needle and Picospritzer system. A kcnh6 translation blocking (kcnh6 MO, 5′-[…]-3′, SEQ ID NO:1) and a scrambled morpholino oligonucleotide were obtained from Gene Tools LLC and injected at 10 ng to deplete kcnh6 or as a control, respectively. CRISPR sgRNAs for kcnh6 targeted either exon 3 or exon 4 based on the v7.1 gene model of the X. tropicalis genome (CRex3: 5′-[…]-3′, SEQ ID NO:2 and CRex4: 5′-[…]-3′, SEQ ID NO:3). CRISPR sgRNAs for cacna1c (5′-[…]-3′, SEQ ID NO:4) and cacna1g (5′-[…]-3′, SEQ ID NO:5) were designed from the v7.1 model of the Xenopus tropicalis genome. For F0 CRISPR knockdown, embryos were injected with 1.5 ng Cas9 Protein (PNA-Bio) and 400 pg of targeting sgRNA and raised to desired stages. […] Full length human KCNH6 (NM 030779.3; cloned in pCS107), GCaMP6 (subcloned in pCSDest) and mCherry cDNAs (Addgene #34935; in pCS2+), were used to generate capped mRNAs in vitro by first linearizing with appropriate restriction enzymes and then transcribing with the mMessage machine kit (Ambion). mRNAs were injected at 3 pg (human KCNH6), 150 pg (GCaMP6) and 150 pg (mCherry) per embryo. Embryos were raised at 21° C. to allow time for sufficient expression levels at blastula/gastrula stages.\n(§1) Normal embryonic medium is 1/9× modified Ringer's (MR) containing 11 mM NaCl, 0.2 mM KCl, 0.2 mM CaCl2), 0.1 mM Mg2Cl and 0.55 mM HEPES. To allow Ergtoxin to penetrate the embryos, the present study manually removed the vitelline envelope of stage 8 embryos and incubated embryos in 1/9×MR containing 50 nM Ergtoxin (Alomone STE-450) until stage 12. Embryos were then transferred back into 1/9×MR lacking Ergtoxin to develop until stage 45 in order to score organ situs. Barium chloride was applied into the medium at 20 mM and embryos were thoroughly rinsed in 1/9×MR after each incubation period for further development in Ba2+-free medium. For extracellular K^+ manipulations, the KCl concentration in 1/9×MR was modified from 0.2 mM (normal) to 20 mM (high) or 0 mM (low). The ionophore valinomycin (ACROS) and L-type VGCC blocker Nifedipine (ACROS) were diluted in DMSO as stock solutions and applied to embryos in 1/9×MR at 2 nM and 10 μM respectively. Treatments performed during gastrulation were applied from stage 8 through stage 12, and embryos were then rinsed thoroughly and returned into 1/9×MR. For rapamycin, the present study created a standard stock solution of 50 mg/ml in DMSO. The stock solution was diluted 1:2500 in the appropriate embryonic media (final 20 μg/ml). Embryos were treated at stage 7 and then fixed at stage 11 for in situ hybridization.\n(§2) In experiments where embryos were evaluated for phenotypes and scored (gastrulation, left-right patterning, in situ hybridizations) the present study carried out three to five biological replicates and Fisher's exact test to evaluate statistical significance. The animal cap experiment was performed twice with a total score of four to eight animal caps per experiment. For the calcium transient analyses, data was collected from three to five embryos in each experiment in three independent experiments, and statistical analyses on GCaMP/mCherry fluorescence intensity as well as Ca^2+ transient area were performed using student's t-test. For whole cell electrophysiological recordings, three to five embryos (two cells each) were examined for their membrane potential and statistical significance was tested by student's t-test. Graphs were designed using GraphPad Prism software. Models were created with BioRender.com."}, "Xenopus embryos [2]": {"test_system": "Xenopus embryos", "experiment": "Organ situs (left-right patterning) scoring in stage 45 tadpoles", "type": "in vivo, Xenopus tropicalis", "details": "for abnormal organ situs: kcnh6 depletion, injected at one-cell stage", "procedure": "Stage 45 Xenopus embryos were paralyzed with benzocaine or tricaine and scored with a light stereomicroscope. Cardiac looping was determined by position of the outflow tract; D-loop: rightward, L-loop: leftward; A-loop: midline. Normal intestinal looping was scored as counter-clockwise rotation of the gut, while abnormal intestinal looping was scored as completely inverse gut rotation (clockwise) or complete lack of looping (un-looped). While a completely inverted gut rotation is clearly an abnormality of LR patterning, an unlooped gut is less clear so the present study only considered an unlooped gut as abnormal situs when combined with abnormal placement (left-sided or midline) of the gall bladder. To quantify total abnormal organ situs, each tadpole was counted only once, regardless of whether multiple organs were affected.\nas §1, §2"}, "[3]": {"test_system": "animal pole cells (prospective ectoderm)", "experiment": "Intracellular Vm recordings in animal pole cells", "type": "in vivo, Xenopus tropicalis", "details": "high K^+ and ½ sodium replacement with choline; stage 9 animal pole", "description": "For recordings, devitellinized, stage 10 kcnh6 or control MO injected embryos were mounted into non-toxic clay with their animal pole exposed and covered with 1/9×MR. To investigate the resting potential, animal pole cells were impaled with a high-impedance (˜70 Me), sharp microelectrode filled with 3 M KCl for intracellular recordings. The recordings were made using an Axon 200B amplifier and digitized using a Digidata 1320 digitizer. Jclamp software for Windows was used in current clamp mode. All electrodes were zeroed just before entry into the cells.\nFor the series of intracellular recordings in high K^+ and choline treated embryos, stage 8-9 embryos were impaled similarly with an electrode of […]. These recordings were made using a HEKA EPC10 amplifier. The present study used HEKA PatchMaster v2x67 software for Windows. […]\nIn experiments where embryos were evaluated for phenotypes and scored (gastrulation, left-right patterning, in situ hybridizations) the present study carried out three to five biological replicates and Fisher's exact test to evaluate statistical significance. […] For the calcium transient analyses, data was collected from three to five embryos in each experiment in three independent experiments, and statistical analyses on GCaMP/mCherry fluorescence intensity as well as Ca^2+ transient area were performed using student's t-test. […]"}, "Xenopus embryos [4]": {"test_system": "Xenopus embryos", "experiment": "Whole mount in situ hybridization for germ layer and pluripotency markers", "type": "in vivo, Xenopus tropicalis", "details": "for expression of ectodermin and myf5 on co-depletion in kcnh6 depleted embryos: CRISPR co-depletion", "description": "In order to generate a full-length antisense probe for X. tropicalis kcnh6, kcnh6 cDNA was cloned from stage 45 tadpole whole mRNA using primers […] ID NO:10) and […] ID NO:11) (XM_012952904.1). It was noted that kcnh6 had been misannotated as kcnh2 in the v7.1 model of the X. tropicalis genome (The present study used NCBI Annotation XP_012808358.2 to identify KCNH6). […] GRPs were dissected post fixation and prior to dehydration to detect dandy. To detect putative gene expression in the prospective endoderm (mixer, vegT, kcnh6) gastrula stage embryos were bisected to facilitate better probe access. Briefly, whole mount in situ hybridization of digoxigenin-labeled antisense probes was performed overnight, the labelled embryos were then washed, incubated with anti-digoxigenin-AP Fab fragments (Roche 11093274910), and signal was detected using BM-purple (Roche 11442074001). Normal embryonic medium is 1/9× modified Ringer's (MR) containing 11 mM NaCl, 0.2 mM KCl, 0.2 mM CaCl2), 0.1 mM Mg2Cl and 0.55 mM HEPES. […] For extracellular K^+ manipulations, the KCl concentration in 1/9×MR was modified from 0.2 mM (normal) to 20 mM (high) or 0 mM (low). […] For rapamycin, the present study created a standard stock solution of 50 mg/ml in DMSO. The stock solution was diluted 1:2500 in the appropriate embryonic media (final 20 μg/ml). […] In experiments where embryos were evaluated for phenotypes and scored (gastrulation, left-right patterning, in situ hybridizations) the present study carried out three to five biological replicates and Fisher's exact test to evaluate statistical significance. The animal cap experiment was performed twice with a total score of four to eight animal caps per experiment. […] For whole cell electrophysiological recordings, three to five embryos (two cells each) were examined for their membrane potential and statistical significance was tested by student's t-test. Graphs were designed using GraphPad Prism software. Models were created with BioRender.com."}, "hESCs": {"test_system": "hESCs", "experiment": "hESC pluripotency marker immunofluorescence", "type": "cell-based, human", "details": "hESCs, rapamycin 100 nM, 5 days", "procedure": "hESCs were grown in mTeSR1 ([…] Technologies) in tissue culture dishes coated with Matrigel (Corning; 1:200 in DMEM/F12) and kept at 37° C., 5% CO2. The cell lines used were ESI017 (ESIBIO) and H9.\nCells were dissociated with accutase and seeded onto 8 well imaging slides (ibidi 80826) at a density of 4-6×10^4/cm^2. Cells were seeded and maintained in Rock-inhibitor Y27672 (MCE; 10 μM) to increase survival and the uniformity of response. Treatments with 1 mM BaCl2 or 10 or 25 nM Ergtoxin or 100 nM rapamycin were initiated 4 hours after seeding. Differentiation was initiated 24 hours after seeding where indicated. To initiate differentiation, the media was replenished with/without BaCl2 or Ergtoxin and treated with the indicated growth factors or small molecules. Cells were incubated for the indicated times without media change before fixation.\nCells were fixed for 30 min in 4% paraformaldehyde, rinsed twice with DPBS (without Ca^2+ and Mg^2+, denoted DPBS^−/−), and blocked for 30 min at room temperature. The blocking solution contained 3% donkey serum and 0.1% Triton X-100 in 1×DPBS^−/−. After blocking, the cells were incubated with primary antibodies at room temperature for 2 hours. Antibodies and concentrations are listed below. Cells were washed three times with DPBST (1×DPBS^−/− with Tween 20) and incubated with secondary antibodies (AlexaFluor 488 A21206, AlexaFluor 555 A31570 and A21432, and AlexaFluor 647 A31571, Thermo Fisher; 1:500) and DAPI for 30 min at room temperature. After secondary antibody incubation, samples were washed in DPBST and then DPBS at room temperature.\nImages were acquired using a 20×, NA 0.75 objective on an Olympus IX83 inverted epifluorescence microscope or an Olympus/Andor spinning disk confocal microscope. Cell segmentation was performed using ilastik software. This segmentation was cleaned (to remove debris and to separate merged cells) and mean nuclear protein intensities as well as standard errors were quantified using a custom MATLAB code. Nuclear intensities were normalized by DAPI to correct for intensity variation due to optics. […]"}, "[5]": {"details": "nifedipine-treated (10 μM) kcnh6 CR embryos"}, "[6]": {"details": "nifedipine-treated (10 μM) kcnh6 MO embryos"}}, "data": [{"molecule": "CC(C)[C@@H]1NC(=O)[C@H](C)OC(=O)[C@@H](C(C)C)NC(=O)[C@@H](C(C)C)OC(=O)[C@H](C(C)C)NC(=O)[C@H](C)OC(=O)[C@@H](C(C)C)NC(=O)[C@@H](C(C)C)OC(=O)[C@H](C(C)C)NC(=O)[C@H](C)OC(=O)[C@@H](C(C)C)NC(=O)[C@@H](C(C)C)OC1=O", "note": "[valinomycin]", "values": [{"measurement": "gastrulation defect in kcnh6 CR embryos", "setting": "Xenopus embryos [1]; kcnh6 CR embryos treated with valinomycin 2 nM, stage 8-12", "result": "16±7", "unit": "%"}]}, {"molecule": "CR-ex3: CRISPR sgRNA targeting kcnh6 exon 3, SEQ ID NO:2, injected with Cas9 protein (guide GGAATAAGGGGTGAAGACAGCGG; sgRNA injected with Cas9 protein, chemistry not given here; the letters are possibly those of the target site)", "values": [{"measurement": "inability to complete gastrulation", "setting": "Xenopus embryos [1]", "result": "27±4", "unit": "%"}, {"measurement": "abnormal organ situs", "setting": "Xenopus embryos [2]", "result": "43±12", "unit": "%"}]}, {"molecule": "C[N+](C)(C)CCO", "note": "[choline]", "values": [{"measurement": "Vm", "setting": "[3]", "result": "−41±4", "unit": "mV"}]}, {"molecule": "cacna1g: CRISPR sgRNA for cacna1g (Cav3.1; T-type), SEQ ID NO:5 (guide GGTTAATGGCTCTCAGCGGGCGG; sgRNA chemistry not given here; the letters are possibly those of the target site)", "values": [{"measurement": "expression of ectodermin and myf5 on co-depletion in kcnh6 depleted embryos", "setting": "Xenopus embryos [4]", "result": "no rescue"}]}, {"molecule": "COC(=O)C1=C(C)NC(C)=C(C(=O)OC)C1c1ccccc1[N+](=O)[O-]", "note": "[nifedipine]", "values": [{"measurement": "embryos with absent ectodermin", "setting": "Xenopus embryos [4]; [5]", "result": "16±7", "unit": "%"}, {"measurement": "embryos with myf5 lost", "setting": "Xenopus embryos [4]; [5]", "result": "16±1", "unit": "%"}, {"measurement": "embryos with absent ectodermin", "setting": "Xenopus embryos [4]; [6]", "result": "17±3", "unit": "%"}, {"measurement": "embryos with myf5 lost", "setting": "Xenopus embryos [4]; [6]", "result": "18±5", "unit": "%"}]}, {"molecule": "[Ba+2].[Cl-].[Cl-]", "note": "[Barium, Barium chloride]", "values": [{"measurement": "embryos that failed to complete gastrulation", "setting": "Xenopus embryos [1]; depolarizing treatment at blastula/gastrula stages (stage 8-12), barium chloride 20 mM or KCl 20 mM, ±SEM", "result": "37±3", "unit": "%"}, {"measurement": "embryos with misplacement of organs relative to the left-right axis (defective organ situs)", "setting": "Xenopus embryos [2]; depolarizing treatment at blastula/gastrula stages, scored at stage 45, ±SEM", "result": "23±2", "unit": "%"}, {"measurement": "markers of dorsal (gsc, nodal3) and ventral mesoderm (vent2)", "setting": "Xenopus embryos [4]; depolarized embryos, stage 10", "result": "unaffected"}, {"measurement": "paraxial mesoderm fates (myoD, myf5, tbxt)", "setting": "Xenopus embryos [4]; depolarized embryos, stage 10", "result": "lost"}]}, {"molecule": "CR-ex4: CRISPR sgRNA targeting kcnh6 exon 4, SEQ ID NO:3, injected with Cas9 protein (guide AGGGCGCTCTACATTTCCAATGG; sgRNA injected with Cas9 protein, chemistry not given here; the letters are possibly those of the target site)", "values": [{"measurement": "inability to complete gastrulation", "setting": "Xenopus embryos [1]", "result": "29±5", "unit": "%"}, {"measurement": "abnormal organ situs", "setting": "Xenopus embryos [2]", "result": "19±1", "unit": "%"}]}, {"molecule": "CO[C@H]1C[C@@H]2CC[C@@H](C)[C@@](O)(O2)C(=O)C(=O)N2CCCC[C@H]2C(=O)O[C@H]([C@H](C)C[C@@H]2CC[C@@H](O)[C@H](OC)C2)CC(=O)[C@H](C)/C=C(\\C)[C@@H](O)[C@@H](OC)C(=O)[C@H](C)C[C@H](C)/C=C/C=C/C=C/1C", "note": "[rapamycin]", "values": [{"measurement": "final cell numbers per well", "setting": "hESCs", "result": "reduce the final cell numbers per well"}]}, {"molecule": "cacna1c: CRISPR sgRNA for cacna1c (Cav1.2; L-type), SEQ ID NO:4 (guide GCAGACGGGGGCAGCGCCATTGG; sgRNA chemistry not given here; the letters are possibly those of the target site)", "values": [{"measurement": "expression of ectodermin and myf5 on co-depletion in kcnh6 depleted embryos", "setting": "Xenopus embryos [4]", "result": "rescued expression"}]}]}
